Data as given in patent US9682940B2, “Indazole derivatives useful as CB-1 inverse agonists” (Janssen Pharmaceutica NV, priority 2015, dated 2017).

Assays:
[1] = molecular target: Human CB1R (Cannabanoid receptor 1) (Homo sapiens (Human), UniProt P21554); test: CB-1 in vitro cAMP (HTRF) assay in HEK-293 cells; assay type: cell-based; settings: HEK-293 cells stably transfected with human CB1R, 250 nM Forskolin, mean where tested more than once, read-out: CB-1 (HEK_cAMP) EC50
From the text: (§1) CB1 and CB2 receptors are Gi-coupled GPCR. Activation of CB1 and CB2 receptors results in a decrease in cAMP production. An inverse agonist of the CB1 or CB2 receptor results in the opposite effect, an increase of cAMP production. The principle of this assay is based on HTRF® technology (Homogeneous Time-Resolved Fluorescence). The method is a competitive immunoassay between native cAMP produced by cells and the cAMP labeled with the fluorophore d2. The tracer binding is quantified by a Mab anti-cAMP labeled with Eu3+TBP-NHS Cryptate (supplied as part of the assay kit). The specific signal (i.e. energy transfer) is inversely proportional to the concentration of cAMP in the standard or sample.
(§2) Human CB1R (Cannabanoid receptor 1) was stably transfected in HEK-293 cells (DiscoveRx, cat: 93-0200C1). Human CB2R (Cannabanoid receptor 2) was stably transfected in HEK-293 cells (DiscoveRx, cat: 93-0201C1). Cell cultures were maintained in media: DMEM (Invitrogen Cat#12430-054) supplemented with 10% HI FBS (Invitrogen Cat#16140-071), 1% L-glutamine (Invitrogen Cat#25030-081), 0.2 mg/ml Hygromycin B (Invitrogen Cat#10687-010), 600 μg/mL G418 (Invitrogen Cat#10131-035), and 1× Penn/Strep (Invitrogen 15140-122). After cell expansion, aliquots were cryo-stored in media containing 5% DMSO (Pierce Cat#20684).
(§3) One day prior to experiments media was warmed to 37° C. and the cryo-stored cells were thawed in a 37° C. water bath. The cells were then added to media (10× volume) and the mixture was centrifugated at 1000 RPM for 5 min. The supernate was removed and the cells were re-suspended in media. A sample of the cell suspension was evaluated on a Cedex XS automated cell counter (Innovatis Systems) to determine viable cells/ml. Additional media was added to the cells to achieve a final cell density of 4E5 cells/mL. The cells were then plated into 384 well PDL white solid bottom plates (Greiner, Cat#781945) at 20 μL per well using a Multidrop (Thermo Scientific). Cells were removed from Row P (location of cAMP standards). Two columns of cells were plated into a clear bottom 384 well PDL coated plate (Greiner, Cat#781944) to view confluence the day of the assay. The cell plates were lidded and stored for 15 minutes in a hood, then transferred to an incubator (37° C., 5% CO2, 95% humidity) overnight.
(§4) DMSO was added to all wells of 384 well V bottom polystyrene plate (Greiner, Cat#781280) except to columns 1 and 13, rows O and P and wells M13-M23 and N13-N23. Test compounds (60 μL, 10 mM) were added to Column 1 and 13 (A1 through N1 and A13 through L13). Test compounds were serially diluted 1/3 by transferring and mixing 20 μl sample with 40 μL DMSO.
(§5) DMSO (40 μL) was added to wells of 384 well V bottom polystyrene plate: O2 through O11, M14 through M23, N14 through N23, and O14 through 023. AM630 (also known as [6-iodo-2-methyl-1-[2-(4-morpholinyl)ethyl]-1H-indol-3-yl](4-methoxyphenyl)-methanone, Cayman Chemical, Cat#10006974) (60 μL, 10 mM) was added to 01; and 1-(2,4-dichlorophenyl)-7-[(4-fluorophenyl)methylene]-4,5,6,7-tetrahydro-N-1-piperidinyl-1H-indazole-3-carboxamide (60 μL, 10 mM) was added to N13. The control was serially diluted 1/3 by transferring and mixing 20 μl sample with 40 μL DMSO. This process resulted 11 doses per control, 10 mM to […].
(§6) Cells plated the day prior to the assay in clear bottom plates were viewed on an inverse microscope to ensure confluency in the range of 60-75%. […]

[2] = molecular target: Human CB2R (Cannabanoid receptor 2) (Homo sapiens (Human), UniProt P34972); test: CB-2 in vitro cAMP (HTRF) assay in HEK-293 cells; assay type: cell-based; settings: HEK-293 cells stably transfected with human CB2R, 250 nM Forskolin, mean where tested more than once, read-out: CB-2 (HEK_cAMP) EC50
From the text: as §1, §2, §3, §4, §5, §6

Chain of Human CB1R (Cannabanoid receptor 1) (P21554 whole entry): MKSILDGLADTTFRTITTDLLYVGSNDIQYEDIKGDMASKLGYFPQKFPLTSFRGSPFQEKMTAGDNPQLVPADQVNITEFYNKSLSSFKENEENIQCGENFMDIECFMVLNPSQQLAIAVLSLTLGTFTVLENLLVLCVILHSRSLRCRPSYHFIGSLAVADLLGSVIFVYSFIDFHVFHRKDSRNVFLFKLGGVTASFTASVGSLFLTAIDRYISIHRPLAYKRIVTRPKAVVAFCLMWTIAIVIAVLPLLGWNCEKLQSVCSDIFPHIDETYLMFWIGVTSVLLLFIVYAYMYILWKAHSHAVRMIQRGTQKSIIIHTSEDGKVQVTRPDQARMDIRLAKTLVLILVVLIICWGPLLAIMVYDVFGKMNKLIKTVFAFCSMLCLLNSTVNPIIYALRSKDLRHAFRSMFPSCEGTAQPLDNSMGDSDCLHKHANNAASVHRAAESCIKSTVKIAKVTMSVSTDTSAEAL
Chain of Human CB2R (Cannabanoid receptor 2) (P34972 whole entry): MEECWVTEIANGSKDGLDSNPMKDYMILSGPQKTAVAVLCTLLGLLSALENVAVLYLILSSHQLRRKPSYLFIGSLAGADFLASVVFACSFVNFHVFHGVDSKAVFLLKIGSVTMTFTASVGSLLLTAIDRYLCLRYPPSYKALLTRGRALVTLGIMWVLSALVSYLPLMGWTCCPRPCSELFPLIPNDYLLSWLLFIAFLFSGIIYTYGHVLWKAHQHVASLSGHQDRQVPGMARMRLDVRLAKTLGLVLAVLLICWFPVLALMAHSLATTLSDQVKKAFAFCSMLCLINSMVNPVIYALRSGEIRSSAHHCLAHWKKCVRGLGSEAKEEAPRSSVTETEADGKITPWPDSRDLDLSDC

| Structure (SMILES) | EC50 [1] [µM] | EC50 [2] [µM] |
| --- | --- | --- |
| O=C(O)Cc1cccc(N2CCC(c3c4cc(C(c5ccc(Cl)cc5)c5ccc(Cl)cc5)ccc4nn3C3CC3)CC2)c1 [Compound 185] | 0.833 | > 10 |
| COc1ccccc1S(=O)(=O)N1CCC(Nc2n[nH]c3ccc(C(c4ccc(Cl)cc4)c4ccc(Cl)cc4)cc23)CC1 [Compound 100] | 0.428 | > 10 |
| O=C(O)c1ccc(S(=O)(=O)N2CCC(c3n[nH]c4ccc(C(c5ccc(Cl)cc5)c5ccc(Cl)cc5)cc34)CC2)cc1 [Compound 27] | 0.41 | > 10 |
| O=S(=O)(N1CCC(c2nn(-c3ccc(OC(F)(F)F)cc3)c3ccc(C(c4ccc(Cl)cc4)c4ccc(Cl)cc4)cc23)CC1)C(F)(F)F [Compound 49] | 0.018 | > 10 |
| COc1ccccc1S(=O)(=O)N1CCC(c2c3cc(C(c4ccc(Cl)cc4)c4ccc(Cl)cc4)ccc3nn2C2CC2)CC1 [Compound 156, 5-(bis(4-chlorophenyl)methyl)-2-cyclopropyl-3-(1-(2-methoxyphenylsulfonyl)piperidin-4-yl)-2H-indazole] | 0.001 | > 10 |
| O=C(CCO)N1CCC(c2nn(C3CC3)c3ccc(C(c4ccc(Cl)cc4)c4ccc(Cl)cc4)cc23)CC1 [Compound 108] | 0.037 | > 10 |
| NC(=O)c1ccc(N2CCC(c3nn(C4CC4)c4ccc(C(c5ccc(Cl)cc5)c5ccc(Cl)cc5)cc34)CC2)cc1 [Compound 189] | 0.023 | > 10 |
| O=C(O)c1ccc(S(=O)(=O)N2CCC(c3nn(C4CC4)c4ccc(C(c5ccc(Cl)cc5)c5ccc(Cl)cc5)cc34)CC2)cc1 [Compound 89] | 0.339 | > 10 |
| O=C(O)c1csc(CN2CCC(c3nn(C4CC4)c4ccc(C(c5ccc(Cl)cc5)c5ccc(Cl)cc5)cc34)CC2)c1 [Compound 227] | 0.084 | > 10 |
| NC(=O)c1ccccc1S(=O)(=O)N1CCC(c2nn(CCO)c3ccc(C(c4ccc(Cl)cc4)c4ccc(Cl)cc4)cc23)CC1 [Compound 70] | 0.428 | > 10 |
| O=C(O)Cc1ccc(N2CCC(c3nn(C4CC4)c4ccc(C(c5ccc(Cl)cc5)c5ccc(Cl)cc5)cc34)CC2)cc1 [Compound 181] | 7.8 | > 10 |
| CNC(=O)c1cc(S(=O)(=O)N2CCC(c3c4cc(C(c5ccc(Cl)cc5)c5ccc(Cl)cc5)ccc4nn3C3CC3)CC2)ccc1OC [Compound 159, 5-(4-(5-(bis(4-chlorophenyl)methyl)-2-cyclopropyl-2H-indazol-3-yl)piperidin-1-ylsulfonyl)-2-methoxy-N-methylbenzamide] | 0.003 | > 10 |
| NC(=O)COc1ccc(N2CCC(c3n[nH]c4ccc(C(c5ccc(Cl)cc5)c5ccc(Cl)cc5)cc34)CC2)cc1 [Compound 217] | 1.03 | 4.1 |
| NC(=O)c1ccc(S(=O)(=O)N2CCC(c3nn(C4CC4)c4ccc(C(c5ccc(Cl)cc5)c5ccc(Cl)cc5)cc34)CC2)cc1 [Compound 95] | 0.063 | 6.5 |
| O=C(O)c1cccc(CN2CCC(c3nn(C4CC4)c4ccc(C(c5ccc(Cl)cc5)c5ccc(C(F)(F)F)cc5)cc34)CC2)c1 (stereo not drawn) [Compound 248] | 0.041 | > 10 |
| CCOC(=O)Cn1nc(C2CCN(S(=O)(=O)C(F)(F)F)CC2)c2cc(C(c3ccc(Cl)cc3)c3ccc(Cl)cc3)ccc21 [Compound 75] | 3.93 | > 10 |
| O=C(O)c1cccc(S(=O)(=O)N2CCC(c3nn(CCO)c4ccc(C(c5ccc(Cl)cc5)c5ccc(Cl)cc5)cc34)CC2)c1 [Compound 68] | 0.085 | > 10 |

| Structure (SMILES) | EC50 [1] [µM] | EC50 [2] [µM] |
| --- | --- | --- |
| O=C(O)c1ccc(CN2CCC(c3nn(C4CC4)c4ccc(C(c5ccc(Cl)cc5)c5ccc(Cl)cc5)cc34)CC2)o1 [Compound 250] | 0.043 | > 10 |
| CNC(=O)c1cc(S(=O)(=O)N2CCC(c3c4cc(C(c5ccc(Cl)cc5)c5ccc(Cl)cc5)ccc4nn3C3CC3)CC2)ccc1Cl [Compound 170, 5-(4-(5-(bis(4-chlorophenyl)methyl)-2-cyclopropyl-2H-indazol-3-yl)piperidin-1-ylsulfonyl)-2-chloro-N-methylbenzamide] | 0.009 | > 10 |
| O=C(O)CCC(=O)N1CCC(c2c3cc(C(c4ccc(Cl)cc4)c4ccc(Cl)cc4)ccc3nn2C2CC2)CC1 [Compound 127] | 4.76 | > 10 |
| O=C(O)CCNC(=O)c1ccc(-n2nc(C3CCN(S(=O)(=O)C(F)(F)F)CC3)c3cc(C(c4ccc(Cl)cc4)c4ccc(Cl)cc4)ccc32)cc1 [Compound 230] | 3.26 | > 10 |
| CC(=O)n1nc(N2CCN(S(=O)(=O)C(F)(F)F)CC2)c2cc(C(c3ccc(Cl)cc3)c3ccc(Cl)cc3)ccc21 [Compound 44] | 0.014 | > 10 |
| CNC(=O)c1ccc(S(=O)(=O)N2CCC(c3c4cc(C(c5ccc(Cl)cc5)c5ccc(Cl)cc5)ccc4nn3C3CC3)CC2)cc1Cl [Compound 154, 4-(4-(5-(bis(4-chlorophenyl)methyl)-2-cyclopropyl-2H-indazol-3-yl)piperidin-1-ylsulfonyl)-2-chloro-N-methylbenzamide] | 0.004 | > 10 |
| NC(=O)c1ccc(S(=O)(=O)N2CCC(c3c4cc(C(c5ccc(Cl)cc5)c5ccc(Cl)cc5)ccc4nn3C3CC3)CC2)cn1 [Compound 165, 5-(4-(5-(bis(4-chlorophenyl)methyl)-2-cyclopropyl-2H-indazol-3-yl)piperidin-1-ylsulfonyl)picolinamide] | 0.013 | > 10 |
| NC(=O)c1cc(S(=O)(=O)N2CCC(c3c4cc(C(c5ccc(Cl)cc5)c5ccc(Cl)cc5)ccc4nn3C3CC3)CC2)ccc1F [Compound 163, 5-(4-(5-(bis(4-chlorophenyl)methyl)-2-cyclopropyl-2H-indazol-3-yl)piperidin-1-ylsulfonyl)-2-fluorobenzamide] | 0.012 | > 10 |
| O=S(=O)(N1CCN(c2nn(CCO)c3ccc(C(c4ccc(Cl)cc4)c4ccc(Cl)cc4)cc23)CC1)C(F)(F)F [Compound 42] | 0.006 | > 10 |
| NC(=O)CS(=O)(=O)N1CCC(c2n[nH]c3ccc(C(c4ccc(Cl)cc4)c4ccc(Cl)cc4)cc23)CC1 [Compound 25] | 1.23 | > 10 |
| O=S(=O)(C1CC1)N1CCC(c2n[nH]c3ccc(C(c4ccc(Cl)cc4)c4ccc(Cl)cc4)cc23)CC1 [Compound 54] | 0.027 | > 10 |
| NC(=O)c1cccc(C(=O)N2CCC(c3c4cc(C(c5ccc(Cl)cc5)c5ccc(Cl)cc5)ccc4nn3C3CC3)CC2)c1 [Compound 112] | 0.062 | > 10 |
| O=C(CO)N1CCC(c2c3cc(C(c4ccc(Cl)cc4)c4ccc(Cl)cc4)ccc3nn2C2CC2)CC1 [Compound 110] | 0.134 | > 10 |
| O=C(O)CS(=O)(=O)N1CCC(c2n[nH]c3ccc(C(c4ccc(Cl)cc4)c4ccc(Cl)cc4)cc23)CC1 [Compound 22] | 0.249 | > 10 |
| O=C(O)c1cccc(CN2CCC(c3c4cc(C(c5ccc(Cl)cc5)c5ccc(Cl)cc5)ccc4nn3C3CC3)CC2)n1 [Compound 251, 6-((4-(5-(bis(4-chlorophenyl)methyl)-2-cyclopropyl-2H-indazol-3-yl)piperidin-1-yl)methyl)picolinic acid] | 0.014 | > 10 |
| CC(c1cccc(C(=O)O)c1)N1CCC(c2n[nH]c3ccc(C(c4ccc(Cl)cc4)c4ccc(Cl)cc4)cc23)C1 (stereo not drawn) [Compound 277] | 1.55 | 7 |
